Experimental findings from US8975417B2, “Pyrazolopyrrolidine derivatives and their use in the treatment of disease” (Novartis AG, priority 2013, dated 2015) are described below.

Assay [1] addresses His-CREBBP (1081-1197) bromodomain (Homo sapiens (Human), UniProt Q92793). Description: AlphaScreen in-vitro binding assay for CREBBP. The settings on record: biochemical. The gist of the method: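 Ni-chelate acceptor and streptavidin donor beads (45 µg/mL each, in 50 mM HEPES pH 7.5, 150 mM NaCl, 0.02% BSA) were then added for 60 min at room temperature. IC50 came from 8-point non-linear regression.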
Background: In Alpha technology, singlet oxygen from a donor bead excites a nearby acceptor bead.

Another assay has as its system THP-1 cells. Description: Cell growth inhibition assay (CellTiter-Glo), THP-1. The assay is classed as cell-based. The following applies: Homo sapiens, read-out: THP-1 TGI. An outline of the steps:
(§1)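 Dose-response over 3-fold dilutions from 10 μM; 0.1% DMSO control. Endpoint: CellTiter-Glo ATP signal, background-subtracted and day 0-corrected.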

For a further assay, the target named is His-Brd3(20-477) (Homo sapiens (Human), UniProt Q15059). Description: TR-FRET in-vitro binding assay for BRD3. The settings on record: biochemical. The gist of the method: (§2)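 Eight-point dilution series tested against in-house His-BRD2(60-472), BRD3(20-477) or BRD4(44-477) (45 nM in dispensed solution) binding acetyl-histone H4 (AcK5,8,12,16; 60 nM in dispensed solution). Incubation 35 min at 30 °C, pH 7.5 HEPES buffer; detection by TR-FRET using Eu-anti-His6 and streptavidin-allophycocyanin.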
On the technique in general: In TR-FRET formats the signal depends on donor and acceptor labels being close together.

In another assay the target is His-Brd4(44-477) (Homo sapiens (Human), UniProt O60885). The assay can be described thus: TR-FRET in-vitro binding assay for BRD4. The following applies: biochemical. An outline of the steps:
as §2

A further assay has as its target His-Brd2(60-472) (Homo sapiens (Human), UniProt P25440). The assay can be described thus: TR-FRET in-vitro binding assay for BRD2. The settings on record: biochemical. The gist of the method: as §2
A further assay deals with MV-4-11 cells. Description: Cell growth inhibition assay (CellTiter-Glo), MV-4-11. The assay is classed as cell-based. The following applies: Homo sapiens, MV4-11, read-out: MV-4-11 TGI. The gist of the method: as §1
(Cellular ATP, detected with luciferase, serves as a proxy for viable cell number.)

A further assay concerns K-562 cells. The assay can be described thus: Cell growth inhibition assay (CellTiter-Glo), K-562. The assay is classed as cell-based, human. The settings on record: Homo sapiens, K562, read-out: K-562 TGI. The gist of the method: as §1

Sequence of His-CREBBP (1081-1197) bromodomain (Q92793 1081-1197): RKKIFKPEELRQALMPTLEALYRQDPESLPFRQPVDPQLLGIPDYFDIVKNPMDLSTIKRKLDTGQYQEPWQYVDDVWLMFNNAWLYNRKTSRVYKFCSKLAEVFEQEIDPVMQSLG
Sequence of His-Brd2(60-472) (P25440 60-472): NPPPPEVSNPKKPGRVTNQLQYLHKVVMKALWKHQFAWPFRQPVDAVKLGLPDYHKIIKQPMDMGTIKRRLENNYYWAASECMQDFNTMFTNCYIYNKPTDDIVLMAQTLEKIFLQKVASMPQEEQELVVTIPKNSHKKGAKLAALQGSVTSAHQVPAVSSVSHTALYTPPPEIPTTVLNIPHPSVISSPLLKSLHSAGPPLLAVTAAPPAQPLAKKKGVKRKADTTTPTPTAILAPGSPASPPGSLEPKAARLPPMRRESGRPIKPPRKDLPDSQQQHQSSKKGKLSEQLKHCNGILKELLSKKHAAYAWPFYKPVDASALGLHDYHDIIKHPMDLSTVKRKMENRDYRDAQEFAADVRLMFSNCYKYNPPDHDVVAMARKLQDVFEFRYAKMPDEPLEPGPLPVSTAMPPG
Sequence of His-Brd3(20-477) (Q15059 20-477): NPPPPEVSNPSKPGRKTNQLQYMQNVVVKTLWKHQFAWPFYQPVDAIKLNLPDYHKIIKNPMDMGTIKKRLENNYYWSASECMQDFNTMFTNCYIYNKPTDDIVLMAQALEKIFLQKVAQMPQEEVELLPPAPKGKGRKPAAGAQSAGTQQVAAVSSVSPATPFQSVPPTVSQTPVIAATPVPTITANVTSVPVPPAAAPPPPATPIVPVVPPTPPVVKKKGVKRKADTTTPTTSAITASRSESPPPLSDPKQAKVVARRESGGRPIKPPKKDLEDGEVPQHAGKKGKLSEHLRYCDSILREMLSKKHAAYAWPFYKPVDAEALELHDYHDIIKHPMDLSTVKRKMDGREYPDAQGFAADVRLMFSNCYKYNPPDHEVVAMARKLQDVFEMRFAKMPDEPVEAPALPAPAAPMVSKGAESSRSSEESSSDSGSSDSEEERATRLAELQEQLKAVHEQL

As for `Cc1nn(C)c2c1C(c1ccc(Cl)cc1)N(c1cc(Cl)c(=O)n(C)c1)C2=O` (stereo not drawn) [Example 58, 5-(5-chloro-1-methyl-6-oxo-1,6-dihydropyridin-3-yl)-4-(4-chlorophenyl)-1,3-dimethyl-4,5-dihydropyrrolo[3,4-c]pyrazol-6(1H)-one], the half-maximal inhibitory concentration (IC50) in assay [1] came to 8.2 µM; at His-Brd3(20-477) it was 0.29 µM; at His-Brd4(44-477), 0.41 µM; at His-Brd2(60-472), 0.56 µM. In addition, the IC (total growth inhibition) was 0.38 µM in the assay with THP-1 cells, 0.157 µM with MV-4-11 cells and more than 10 µM in the assay on K-562 cells.

As to `COc1nccc(-n2nc(C)c3c2C(=O)N(c2cc(C)c(=O)n(C)c2)C3c2ccc(Cl)cc2)n1` (stereo not drawn) [Example 59, 4-(4-chlorophenyl)-5-(1,5-dimethyl-6-oxo-1,6-dihydropyridin-3-yl)-1-(2-methoxypyrimidin-4-yl)-3-methyl-4,5-dihydropyrrolo[3,4-c]pyrazol-6(1H)-one], the IC50 in assay [1] stood at 7.3 µM; at His-Brd3(20-477), 0.48 µM; at His-Brd4(44-477), 0.39 µM; on His-Brd2(60-472), 0.61 µM. Also, the IC (total growth inhibition) in the assay with THP-1 cells is 0.598 µM; with MV-4-11 cells, 0.325 µM; in the assay with K-562 cells, more than 10 µM.

Consider `CCc1nn(-c2cnc(OC)nc2OC)c2c1C(c1ccc(Cl)cc1)N(c1cc(C)c(=O)n(C)c1)C2=O` (stereo not drawn) [Example 60, 4-(4-chlorophenyl)-1-(2,4-dimethoxypyrimidin-5-yl)-5-(1,5-dimethyl-6-oxo-1,6-dihydropyridin-3-yl)-3-ethyl-4,5-dihydropyrrolo[3,4-c]pyrazol-6(1H)-one], for which the IC50 in assay [1] came out at 8.8 µM; on His-Brd3(20-477) it was 0.12 µM; at His-Brd4(44-477), 0.14 µM; at His-Brd2(60-472), 0.16 µM. In addition, the IC (total growth inhibition) was 0.302 µM with THP-1 cells, 0.154 µM in the assay with MV-4-11 cells and more than 10 µM in the assay on K-562 cells.

In the case of `COc1ncc(-n2nc3c(c2C(C)C)[C@@H](c2ccc(Cl)cc2)N(c2cc(C)c4onc(C)c4c2)C3=O)c(OC)n1` [Example 62, (R)-4-(4-chlorophenyl)-2-(2,4-dimethoxypyrimidin-5-yl)-5-(3,7-dimethylbenzo[d]-isoxazol-5-yl)-3-isopropyl-4,5-dihydropyrrolo[3,4-c]pyrazol-6(2H)-one], the IC50 in assay [1] was 1.7 µM; on His-Brd3(20-477), 0.072 µM; on His-Brd4(44-477) it was 0.067 µM; on His-Brd2(60-472), 0.06 µM. In addition, the IC (total growth inhibition) with THP-1 cells is 0.174 µM; in the assay on MV-4-11 cells, 0.105 µM; in the assay with K-562 cells, more than 10 µM.

With `Cc1nn(C(C)C)c2c1C(c1ccc(Cl)cc1)N(c1cc(C)c(=O)n(C)c1)C2=O` (stereo not drawn) [Example 63, 4-(4-chlorophenyl)-5-(1,5-dimethyl-6-oxo-1,6-dihydropyridin-3-yl)-1-isopropyl-3-methyl-4,5-dihydropyrrolo[3,4-c]pyrazol-6(1H)-one], the concentration for half-maximal inhibition (IC50) in assay [1] came to 2.5 µM; on His-Brd3(20-477) it was 0.088 µM; on His-Brd4(44-477), 0.09 µM; on His-Brd2(60-472), 0.13 µM. Moreover, the IC (total growth inhibition) in the assay on THP-1 cells is 0.115 µM; in the assay with MV-4-11 cells it was 0.0509 µM; in the assay on K-562 cells it was more than 10 µM.

For the molecule `Cc1cc(N2C(=O)c3nn(C(C)C)c(C)c3C2c2ccc(Cl)cc2)cn(C)c1=O` (stereo not drawn) [Example 64, 4-(4-chlorophenyl)-5-(1,5-dimethyl-6-oxo-1,6-dihydropyridin-3-yl)-2-isopropyl-3-methyl-4,5-dihydropyrrolo[3,4-c]pyrazol-6(2H)-one], the IC50 in assay [1] was found to be 0.4 µM; at His-Brd3(20-477), 0.11 µM; on His-Brd4(44-477), 0.13 µM; on His-Brd2(60-472), 0.18 µM. Further, the results for the IC (total growth inhibition) in the assay on THP-1 cells, in the assay with MV-4-11 cells and with K-562 cells were 0.113 µM, 0.0423 µM and more than 10 µM, respectively.

Consider `Cc1c2c(nn1C(C)C)C(=O)N(c1cc(Cl)c(=O)n(C)c1)C2c1ccc(Cl)cc1` (stereo not drawn) [Example 65, 5-(5-chloro-1-methyl-6-oxo-1,6-dihydropyridin-3-yl)-4-(4-chlorophenyl)-2-isopropyl-3-methyl-4,5-dihydropyrrolo[3,4-c]pyrazol-6(2H)-one], for which the IC50 is 0.42 µM in assay [1], 0.13 µM on His-Brd3(20-477), 0.2 µM at His-Brd4(44-477) and 0.24 µM at His-Brd2(60-472). The IC (total growth inhibition) was 0.217 µM in the assay with THP-1 cells, 0.109 µM in the assay on MV-4-11 cells and more than 10 µM with K-562 cells.

On to `Cc1nn(C(C)C)c2c1C(c1ccc(Cl)cc1)N(c1cc(Cl)c(=O)n(C)c1)C2=O` (stereo not drawn) [Example 66, 5-(5-chloro-1-methyl-6-oxo-1,6-dihydropyridin-3-yl)-4-(4-chlorophenyl)-1-isopropyl-3-methyl-4,5-dihydropyrrolo[3,4-c]pyrazol-6(1H)-one], for which the IC50 in assay [1] came to 2.6 µM; on His-Brd3(20-477) it was 0.11 µM; at His-Brd4(44-477) it was 0.12 µM; at His-Brd2(60-472) it was 0.16 µM. Also, the IC (total growth inhibition) in the assay with THP-1 cells is 0.248 µM; in the assay on MV-4-11 cells, 0.106 µM; with K-562 cells, more than 10 µM.

Consider `COc1ncc(-n2nc3c(c2C(C)C)C(c2ccc(Cl)cc2)N(c2cc(C)c4nnc(C)n4c2)C3=O)c(OC)n1` (stereo not drawn) [Example 67, 4-(4-chlorophenyl)-2-(2,4-dimethoxypyrimidin-5-yl)-5-(3,8-dimethyl-[1,2,4]triazolo-[4,3-a]pyridin-6-yl)-3-isopropyl-4,5-dihydropyrrolo[3,4-c]pyrazol-6(2H)-one], for which the IC50 in assay [1] turned out to be 2.8 µM; on His-Brd3(20-477) it was 0.028 µM; at His-Brd4(44-477), 0.024 µM; on His-Brd2(60-472), 0.043 µM. The IC (total growth inhibition) in the assay on THP-1 cells was 0.0385 µM; with MV-4-11 cells, 0.0196 µM; in the assay on K-562 cells, more than 10 µM.

With `CCc1c2c(nn1C1CC1)C(=O)N(c1cc(C)c(=O)n(C)c1)C2c1ccc(Cl)cc1` (stereo not drawn) [Example 68], the IC50 in assay [1] was found to be 0.95 µM; on His-Brd3(20-477), 0.04 µM; at His-Brd4(44-477) it was 0.044 µM; on His-Brd2(60-472) it was 0.037 µM. Moreover, the IC (total growth inhibition) was 0.117 µM in the assay on THP-1 cells, 0.0692 µM with MV-4-11 cells and more than 10 µM with K-562 cells.

On to `CCc1nn(C2CC2)c2c1C(c1ccc(Cl)cc1)N(c1cc(C)c(=O)n(C)c1)C2=O` (stereo not drawn) [Example 69], for which the IC50 in assay [1] amounted to 4.1 µM; on His-Brd3(20-477) it was 0.028 µM; at His-Brd4(44-477) it was 0.027 µM; on His-Brd2(60-472), 0.026 µM. Further, the figures for the IC (total growth inhibition) in the assay with THP-1 cells, in the assay on MV-4-11 cells and with K-562 cells were 0.0983 µM, 0.0466 µM and more than 10 µM, respectively.

As to `COc1ncccc1-n1nc(C)c2c1C(=O)N(c1cc(C)c(=O)n(C)c1)C2c1ccc(Cl)cc1` (stereo not drawn) [Example 71, 4-(4-chlorophenyl)-5-(1,5-dimethyl-6-oxo-1,6-dihydropyridin-3-yl)-1-(2-methoxypyridin-3-yl)-3-methyl-4,5-dihydropyrrolo[3,4-c]pyrazol-6(1H)-one], the IC50 was determined as 5.9 µM in assay [1], 0.058 µM at His-Brd3(20-477), 0.053 µM at His-Brd4(44-477) and 0.041 µM on His-Brd2(60-472). Moreover, the values for the IC (total growth inhibition) in the assay on THP-1 cells, with MV-4-11 cells and with K-562 cells were 0.178 µM, 0.103 µM and more than 10 µM, respectively.

Consider `COCc1nn(C2CC2)c2c1[C@@H](c1ccc(Cl)cc1)N(c1cc(C)c(=O)n(C)c1)C2=O` [Example 162, (R)-4-(4-chlorophenyl)-1-cyclopropyl-5-(1,5-dimethyl-6-oxo-1,6-dihydropyridin-3-yl)-3-(methoxymethyl)-4,5-dihydropyrrolo[3,4-c]pyrazol-6(1H)-one], for which the IC50 was determined as 3.7 µM in assay [1], 0.042 µM at His-Brd3(20-477), 0.041 µM on His-Brd4(44-477) and 0.039 µM at His-Brd2(60-472). The values for the IC (total growth inhibition) in the assay with THP-1 cells, in the assay on MV-4-11 cells and with K-562 cells were 0.173 µM, 0.0903 µM and more than 10 µM, respectively.

Regarding `Cc1n[nH]c2c1[C@@H](c1ccc(Cl)cc1)N(c1cc(C)c3nnc(C)n3c1)C2=O` [Example 165, (R)-4-(4-chlorophenyl)-5-(3,8-dimethyl-[1,2,4]triazolo[4,3-a]pyridin-6-yl)-3-methyl-4,5-dihydropyrrolo[3,4-c]pyrazol-6(1H)-one], the IC50 amounted to 4.6 µM in assay [1], 0.023 µM on His-Brd3(20-477), 0.015 µM on His-Brd4(44-477) and 0.017 µM on His-Brd2(60-472). Moreover, the results for the IC (total growth inhibition) in the assay on THP-1 cells, in the assay on MV-4-11 cells and with K-562 cells were 0.0921 µM, 0.0396 µM and more than 10 µM, respectively.

`Cc1cc(N2C(=O)c3c(c(CO)nn3C3CC3)[C@H]2c2ccc(Cl)cc2)cn2c(C)nnc12` [Example 166, (R)-4-(4-chlorophenol)-1-cyclopropyl-5-(3,8-dimethyl-[1,2,4]triazolo[4,3-a]pyridin-6-yl)-3-(hydroxymethyl)-4,5-dihydropyrrolo[3,4-c]pyrazol-6(1H)-one]: the IC50 in assay [1] is 14 µM; on His-Brd3(20-477), 0.013 µM; on His-Brd4(44-477), less than 0.011 µM; on His-Brd2(60-472), 0.016 µM. Moreover, the IC (total growth inhibition) in the assay with THP-1 cells is 0.0539 µM; in the assay on MV-4-11 cells, 0.0262 µM; in the assay on K-562 cells, more than 10 µM.

As usually defined, the IC50 is the midpoint of a concentration-inhibition curve. Low values mean inhibition by little substance, high ones a need for much substance.
